One assay has as its system MRSA-HR. Put plainly: Antimicrobial activity, MIC by agar plate dilution method against MRSA-HR. The class given is cell-based, methicillin resistant Staphylococcus aureus. As to conditions: Staphylococcus aureus, read-out: minimal inhibitory concentration (MIC) against MRSA-HR. As to the method:
(§1) The minimal inhibitory concentration (MIC, μg/mL) against MRSAs (MRSA-HR and MRSA-LR) were measured for typical comounds of novel aminoglycoside antibiotic derivatives described in the Examples (Example 1, Example 2, Example 9, Example 13, Example 18, Example 24, Example 44, Example 45, Example 48, Example 49, Example 51, Example 52, Example 53, Example 54, and Example 76) by an agar plate dilution method based on the method based on the JAPANESE SOCIETY OF CHEMOTHERAPY. As a result, the MIC value of the compounds described in the Examples was not more than 8 against MRSA-HR and not more than 4 against MRSA-LR. The same test was carried out for arbekacin described in Japanese Patent Laid-Open No. 164696/1980.

Another assay concerns MRSA-LR. Put plainly: Antimicrobial activity, MIC by agar plate dilution method against MRSA-LR. The assay is classed as cell-based, methicillin resistant Staphylococcus aureus. As to conditions: Staphylococcus aureus, read-out: minimal inhibitory concentration (MIC) against MRSA-LR. As to the method:
as §1

A further assay deals with P. aeruginosa PAO1. Put plainly: Antimicrobial activity, MIC against P. aeruginosa PAO1. The class given is cell-based. As to conditions: Pseudomonas aeruginosa, read-out: minimal inhibitory concentration (MIC) against P. aeruginosa PAO1.

Molecules are shown by their SMILES. Values after ≈ are worked out from the molar mass of the structure shown. Some results are limits rather than exact numbers.

For `NCC[C@H](O)C(=O)NC1C[C@H](N)C(O[C@H]2OC(CN)CCC2N)C(O)[C@H]1O[C@H]1OC(CO)[C@H](O)C(N)C1O` (some centres unmarked) [Example 1, 5,4″-diepiarbekacin], the figures for the MIC in the assay on MRSA-HR, with MRSA-LR and in the assay on P. aeruginosa PAO1 were ≤ 8 µg/mL, ≤ 4 µg/mL and ≤ 4 µg/mL, respectively.

Turning to `NCC[C@H](O)C(=O)NC1C[C@H](N)C(O[C@H]2OC(CN)CCC2N)C(F)[C@H]1O[C@H]1OC(CO)[C@H](O)C(N)C1O` (stereo partly drawn) [Example 2, 5-Deoxy-4″-epi-5-epifluoroarbekacin], the MIC in the assay on MRSA-HR is ≤ 8 µg/mL; with MRSA-LR, ≤ 4 µg/mL; in the assay with P. aeruginosa PAO1, ≤ 4 µg/mL.

For the compound `NCC1CCC(N)[C@@H](OC2C(O)[C@@H](O[C@H]3OC(CO)[C@H](O)C(N)C3O)C(NC(=O)[C@@H](O)CN)C[C@@H]2N)O1` (stereo partly drawn) [Example 9, 1-N-[(S)-(3-amino-2-hydroxypropanoyl)]-5,4″-diepidibekacin], the MIC in the assay with MRSA-HR was ≤ 8 µg/mL; in the assay with MRSA-LR it was ≤ 4 µg/mL; in the assay on P. aeruginosa PAO1 it was ≤ 4 µg/mL.

With `NCC[C@H](O)C(=O)NC1C[C@H](N)C(O[C@H]2OC(CN)CCC2N)C(O)[C@H]1O[C@H]1OC(CO)[C@@H](O)C(N)C1O` (some centres unmarked) [Example 13, 5-Epiarbekacin], the MIC is ≤ 8 µg/mL in the assay on MRSA-HR, ≤ 4 µg/mL in the assay with MRSA-LR and ≤ 4 µg/mL in the assay on P. aeruginosa PAO1.

For `NCC[C@H](O)C(=O)NC1C[C@H](N)C(O[C@H]2OC(CN)CCC2N)C(N)[C@H]1O[C@H]1OC(CO)[C@@H](O)C(N)C1O` (some centres unmarked) [Example 18, 5-Deoxy-5-epiaminoarbekacin], the values for the MIC with MRSA-HR, in the assay with MRSA-LR and with P. aeruginosa PAO1 were ≤ 8 µg/mL, ≤ 4 µg/mL and ≤ 4 µg/mL, respectively.

As for `NCCNC1C(O[C@H]2OC(CN)CCC2N)[C@@H](N)CC(NC(=O)[C@@H](O)CCN)[C@@H]1O[C@H]1OC(CO)[C@@H](O)C(N)C1O` (stereo partly drawn) [Example 24, 5-Deoxy-5-epi(2-aminoethyl)aminoarbekacin], the values for the MIC in the assay with MRSA-HR, in the assay on MRSA-LR and in the assay with P. aeruginosa PAO1 were ≤ 8 µg/mL, ≤ 4 µg/mL and ≤ 4 µg/mL, respectively.

As to `NCC[C@H](O)C(=O)NC1C[C@H](N)C(O[C@H]2OC(CN)C=CC2N)C(O)[C@H]1O[C@H]1OC(CO)[C@@H](O)C(N)C1O` (some centres unmarked) [Example 44, 3′,4′-didehydro-5-epiarbekacin], the MIC with MRSA-HR was ≤ 8 µg/mL; in the assay on MRSA-LR it was ≤ 4 µg/mL; in the assay with P. aeruginosa PAO1 it was ≤ 4 µg/mL.

On to `NCC[C@H](O)C(=O)NC1C[C@H](N)C(O[C@H]2OC(CN)C=CC2N)C(F)[C@H]1O[C@H]1OC(CO)[C@@H](O)C(N)C1O` (some centres unmarked) [Example 45, 5-Deoxy-3′,4′-didehydro-5-epifluoroarbekacin], for which the results for the MIC with MRSA-HR, in the assay with MRSA-LR and in the assay with P. aeruginosa PAO1 were ≤ 8 µg/mL, ≤ 4 µg/mL and ≤ 4 µg/mL, respectively.

In the case of `NCC[C@H](O)C(=O)NC1C[C@H](N)C(O[C@H]2OC(CN)C=CC2N)C(N)[C@H]1O[C@H]1OC(CO)[C@@H](O)C(N)C1O` (some centres unmarked) [Example 48, 5-Deoxy-3′,4′-didehydro-5-epiaminoarbekacin], the MIC with MRSA-HR was ≤ 8 µg/mL; in the assay with MRSA-LR it was ≤ 4 µg/mL; in the assay with P. aeruginosa PAO1, ≤ 4 µg/mL.

Turning to `NCC[C@H](O)C(=O)NC1C[C@H](N)C(O[C@H]2OC(CN)C=CC2N)C(O)[C@H]1O[C@H]1OC(CO)[C@H](O)C(N)C1O` (some centres unmarked) [Example 51, 3′,4′-Didehydro-5,4″-diepiarbekacin], the MIC in the assay on MRSA-HR was ≤ 8 µg/mL; with MRSA-LR, ≤ 4 µg/mL; in the assay with P. aeruginosa PAO1, ≤ 4 µg/mL.

For `NCC[C@H](O)C(=O)NC1C[C@H](N)C(O[C@H]2OC(CN)C=CC2N)C(F)[C@H]1O[C@H]1OC(CO)[C@H](O)C(N)C1O` (stereo partly drawn) [Example 52, 5-Deoxy-3′,4′-didehydro-4″-epi-5-epifluoroarbekacin], the MIC in the assay with MRSA-HR is ≤ 8 µg/mL; in the assay on MRSA-LR it was ≤ 4 µg/mL; in the assay with P. aeruginosa PAO1, ≤ 4 µg/mL.

Regarding `NCC[C@H](O)C(=O)NC1C[C@H](N)C(O[C@H]2OC(CN)C=CC2N)C(N)[C@H]1O[C@H]1OC(CO)[C@H](O)C(N)C1O` (stereo partly drawn) [Example 53, 5-Deoxy-3′,4′-didehydro-4″-epi-5-epiaminoarbekacin], the MIC in the assay on MRSA-HR was ≤ 8 µg/mL; in the assay on MRSA-LR, ≤ 4 µg/mL; in the assay on P. aeruginosa PAO1, ≤ 4 µg/mL.

As to `NCC[C@H](O)C(=O)NC1C[C@H](N)C(O[C@H]2OC(CN)C=CC2N)C(O)[C@H]1O[C@H]1OC(CO)CC(N)C1O` (some centres unmarked) [Example 54, 4″-Deoxy-3′,4′-didehydro-5-epiarbekacin], the MIC in the assay on MRSA-HR is ≤ 8 µg/mL; with MRSA-LR, ≤ 4 µg/mL; in the assay with P. aeruginosa PAO1, ≤ 4 µg/mL.

Regarding `NCC[C@H](O)C(=O)NC1C[C@H](N)C(O[C@H]2OC(CN)CCC2N)C(O)[C@H]1O[C@H]1OC(C(O)CN)[C@@H](O)C(N)C1O` (some centres unmarked) [Example 76, 6″-Aminomethylarbekacin], the MIC is ≤ 8 µg/mL in the assay with MRSA-HR, ≤ 4 µg/mL with MRSA-LR and ≤ 4 µg/mL with P. aeruginosa PAO1.

On to `NCC[C@H](O)C(=O)N[C@@H]1C[C@H](N)[C@@H](O[C@H]2O[C@H](CN)CC[C@H]2N)[C@H](O)[C@H]1O[C@H]1O[C@H](CO)[C@@H](O)[C@H](N)[C@H]1O` [arbekacin, (S)-1-N-(4-amino-2-hydroxybutyroyl)dibekacin, reference compound], for which the MIC with MRSA-HR came out at 64 µg/mL (≈ 116 µM); with MRSA-LR, 16 µg/mL (≈ 29 µM).
